Experimental data: patent publication US4284619A, “Esters useful as brain imaging agents” (Medi-Physics, Inc., priority 1978, dated 1981)

Tests used:
[1] = Biodistribution bioassay of I-123-labeled compounds in rats, 5 minutes after tail vein injection (blood, brain, heart, stomach activity); type: in vivo, Female Sprague-Dawley rats; conditions: rat; for Percent Dose/g. at 5 min. Blood / Percent Dose/g. at 5 min. Brain / Percent Dose/g. at 5 min. Heart: 0.05 to 1.0 mCi, I-123-labeled
Experimental: Bioassays were performed utilizing compounds from the foregoing examples labeled with I-123 in accordance with the method described in Example 11. Female Sprague-Dawley rats weighing approximately 150 g. were anesthetized with sodium pentobarbital and were injected in a tail vein with from 0.05 to 1.0 mCi (in a volume of 0.2 to 0.5 ml) of the I-123-labeled compound. Two specimens were utilized for each test.
The animals were sacrificed at 5 minutes post injection, the tails discarded and the amount of activity in various organs determined. Each organ was counted at a standardized geometry with a thallium iodide-activated sodium iodide crystal scintillation counter adjusted for the 159 keV emission of I-123. The organs were also weighed to one thousandth of a gram and the activity calculated as a percent of administered dose per gram organ weight.
The ratio of brain-to-blood activity was calculated as a percent of administered dose per gram. The important determinations are the amount of activity in the brain and the brain/blood ratio. The amount of activity in the stomach is related to loss of the I-123-label. For comparative purposes, I-123 antipyrine was utilized as a standard.

[2] = prior art brain imaging agent; cited from earlier work
[3] = i.v. tail vein, ratio of percent dose per gram
[4] = i.v. tail vein, stomach, related to loss of the I-123-label

O=C(Oc1cccc(O)c1O)c1ccccc1[123I] [Example 8, pyrogallyl o-iodobenzoate]
Percent Dose in Stomach ([1]; in vivo, iv): 0.77 Percent Dose | Ratio Brain/Blood ([1]; in vivo, iv): 0.08 | Ratio Heart/Blood ([1]; in vivo, iv): 0.51

O=C(Oc1ccccc1)c1ccccc1[123I] [Example 6, phenyl o-iodobenzoate]
Percent Dose in Stomach ([1]; in vivo, iv): 0.92 Percent Dose | Ratio Brain/Blood ([1]; in vivo, iv): 0.20 | Ratio Heart/Blood ([1]; in vivo, iv): 0.60

CCCCCCCCCCCCCCCCCCOC(=O)c1ccccc1[123I] [Example 10, octadecyl o-iodobenzoate]
Percent Dose in Stomach ([1]; in vivo, iv): 0.92 Percent Dose | Ratio Brain/Blood ([1]; in vivo, iv): 0.12 | Ratio Heart/Blood ([1]; in vivo, iv): 0.53

Cc1c([123I])c(=O)n(-c2ccccc2)n1C [^I 123-iodoantipyrine, 4-iodoantipyrine, reference compound]
loss of the iodine label in the brain [2]: significant loss of the iodine label in the brain | Percent Dose in Stomach ([1]; in vivo, iv): 2.23 Percent Dose

pyridoxyl o-iodobenzoate [Example 9]
Percent Dose/g. at 5 min. Blood ([1]; i.v. tail vein): 1.61 Percent Dose/g. | Percent Dose/g. at 5 min. Brain ([1]; i.v. tail vein): 0.31 Percent Dose/g. | Percent Dose/g. at 5 min. Heart ([1]; i.v. tail vein): 1.02 Percent Dose/g. | Ratio Brain/Blood [1, 3]: 0.19 | Ratio Heart/Blood [1, 3]: 0.63 | Percent Dose in Stomach [1, 4]: 0.93 Percent Dose

CCOC(=O)c1ccccc1[123I] [Example 2, ethyl o-iodobenzoate]
Percent Dose in Stomach ([1]; in vivo, iv): 0.81 Percent Dose | Ratio Brain/Blood ([1]; in vivo, iv): 0.14 | Ratio Heart/Blood ([1]; in vivo, iv): 0.59

O=C(OCc1ccccc1)c1ccccc1[123I] [Example 7, benzyl o-iodobenzoate]
Percent Dose in Stomach ([1]; in vivo, iv): 1.46 Percent Dose | Ratio Brain/Blood ([1]; in vivo, iv): 0.25 | Ratio Heart/Blood ([1]; in vivo, iv): 0.65

glyceryl o-iodobenzoate [Example 5]
Percent Dose/g. at 5 min. Blood ([1]; i.v. tail vein): 1.67 Percent Dose/g. | Percent Dose/g. at 5 min. Brain ([1]; i.v. tail vein): 0.73 Percent Dose/g. | Percent Dose/g. at 5 min. Heart ([1]; i.v. tail vein): 1.12 Percent Dose/g. | Ratio Brain/Blood [1, 3]: 0.43 | Ratio Heart/Blood [1, 3]: 0.67 | Percent Dose in Stomach [1, 4]: 0.79 Percent Dose
